Laboratory results taken from patent US20170165254A1, “TREATING FLAVIVIRUS INFECTIONS WITH AMODIAQUINE AND DERIVATIVES THEREOF” (GEORGETOWN UNIVERSITY, priority 2014, published 2017).
Counter-ions that a name gives are not always drawn. Like-named read-outs stand apart in the source and are kept apart here.

Experiments:
DENV2 replicon = experiment: microbe, parasite or virus in culture; assay type: cell-based, Dengue Virus 2 (DENV2); settings: for inhibition at 50 µM: DENV2, BHK-21, read-out: % Replicon Inhibition (Means ± SEM) DENV2
WNV replicon = experiment: microbe, parasite or virus in culture; assay type: cell-based, West Nile virus (WNV); settings: for inhibition at 50 µM: read-out: % Replicon Inhibition (Means ± SEM) WNV; for EC50: read-out: WNV replicon EC50; for inhibition of WNV replicon replication (in words): FIG. 1B
BHK-21 cells [1] = experiment: Cytotoxicity assay, BHK-21 cells; settings: read-out: DENV replicon CC50; Table 2; unit inferred
Vero cells [2] = experiment: Cytotoxicity assay, Vero cells; settings: read-out: WNV replicon CC50; Table 2; unit inferred
BHK-21 cells [3] = settings: hamster
Vero cells [4] = settings: African green monkey
DENV2 [5] = experiment: Time of addition assay; assay type: cell-based, Dengue Virus 2 (DENV2)
DENV2 [6] = experiment: Direct plaque assay, AQ present only during adsorption (viral entry); assay type: cell-based, Dengue Virus 2 (DENV2)
DENV2 [7] = experiment: Inhibition of DENV2 infectivity in BHK-21 cells, plaque assay of supernatants; assay type: cell-based, Dengue Virus 2 (DENV2); settings: for EC90: read-out: EC90 for inhibition of DENV2 infectivity (plaque assay)
Method: BHK-21 cells were seeded into 12-well plates (10^5 cells/well) and incubated overnight at 37° C. Cells were infected with DENV2 at a multiplicity of infection (MOI) of 0.01 or 1 as indicated. After infection, cells were washed with PBS and incubated with 1.5 mL of MEM supplemented with 2% FBS, 100 I.U./mL penicillin/100 μg/mL streptomycin (referred to as maintenance medium). AQ, at indicated concentrations, was added and cells were incubated at 37° C. for various time points as indicated. DMSO (1%), as a no-compound control (100% infection), and mock-infected control using medium alone (0% infection) were included. Supernatants were collected from the time point experiments and the virus titers determined by plaque assay.
(§1) BHK-21 cells were seeded at ˜10^5 cells/well (12-well plate) or ˜5×10^4 cells/well (24-well plate) and then incubated at 37° C. until reaching 90% confluence. Cells were infected with the supernatants collected from experiments of AQ treatments. Cells were washed with PBS, and incubated with 1.5 mL of overlay medium (maintenance medium containing 1% methylcellulose). The plates were incubated for 3-4 days at 37° C. under 5% CO2. After plaques became visually apparent by microscopy, cells were fixed and stained with 11.1% formaldehyde, 4.75% isopropanol, and 1% crystal violet for 30 minutes. The number of plaque forming units (PFU) per mL was determined.
BHK-21 cells were seeded as described above. AQ, at indicated concentrations in 1% DMSO, was added to DENV2 (MOI of 0.01 or 1)-infected cells during adsorption and/or post-infection. Supernatants were collected at indicated time points post-infection for plaque assays.

Rluc enzyme = molecular target: T1, Rluc enzyme (Renilla reniformis, UniProt P27652); assay type: biochemical; settings: added to BHK-21/DENV2 replicon cell lysate
T1 sequence (P27652 1-311): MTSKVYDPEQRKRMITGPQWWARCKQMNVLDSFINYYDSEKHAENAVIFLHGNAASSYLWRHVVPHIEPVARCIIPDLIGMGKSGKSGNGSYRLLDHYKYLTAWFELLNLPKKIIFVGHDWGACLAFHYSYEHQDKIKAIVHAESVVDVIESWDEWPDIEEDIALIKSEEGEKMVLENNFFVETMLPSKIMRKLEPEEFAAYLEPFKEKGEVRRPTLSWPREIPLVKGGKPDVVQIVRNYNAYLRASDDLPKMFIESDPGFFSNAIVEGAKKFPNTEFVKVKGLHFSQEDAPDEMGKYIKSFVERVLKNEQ

DENV2 [8] = experiment: Order of addition assay; assay type: cell-based, Dengue Virus 2 (DENV2); settings: AQ 5 μM added post-infection; 48 and 72 hours; MOI of 1
DENV2 [9] = experiment: DENV2 intracellular and extracellular RNA levels by qPCR in BHK-21 cells; assay type: cell-based, Dengue Virus 2 (DENV2); settings: AQ 5 μM, 72 hours, p<0.001 vs untreated
DENV2 [10] = experiment: Time-course analysis on DENV2 infectivity (indirect plaque assay); assay type: cell-based, Dengue Virus 2 (DENV2)
Method: as §1
BHK-21 cells were grown in 6-well plates (˜2.5×10^5 cells/well) and were infected with DENV2 at a MOI of 0.01 in the maintenance medium. Cells were washed with PBS and incubated with 3 mL of maintenance medium. AQ at indicated concentrations was added and cells were incubated at 37° C. Supernatants were sampled as indicated and stored at −70° C. for plaque assays.

[11] = 50 μM in 1% DMSO, Vero/WNV replicon cells
[12] = Dengue virus, DENV2, BHK-21, read-out: DENV replicon EC50

## C=C[C@H]1C[N@@]2CC[C@H]1C[C@H]2[C@H](O)c1ccnc2ccc(OC)cc12 [quinine, hydrobromide hydrate]
DENV2 replicon; Dengue virus
  inhibition at 50 µM: 2.8 ± 0.25%
WNV replicon; West Nile virus, Vero
  inhibition at 50 µM: 34.9 ± 6.7%

## COc1ccc(Nc2ccnc3cc(Cl)ccc23)cc1CN(CCCl)C(C)CCl (stereo not drawn) [AQ derivative 7]
BHK-21 cells [1]
  CC50: 17.7 ± 1.96 µM
DENV2 replicon
  % Replicon Inhibition (Means ± SEM) DENV2: 93.0 ± 2.6%
  inhibition of DENV2 replicon replication (in words): strong inhibition
DENV2 replicon; read-out: DENV replicon EC50
  EC50: 19 ± 1.73 µM
Vero cells [2]
  CC50: 34.8 ± 1.78 µM
WNV replicon; [11]
  % Replicon Inhibition (Means ± SEM) WNV: 97.7 ± 1.1%
WNV replicon; Table 2, unit inferred
  EC50: 14.8 ± 1.14 µM
WNV replicon; Vero/WNV replicon cells
  inhibition of WNV replicon replication (in words): strong inhibition

## C/C=C1\CN2CC[C@H]1C[C@H]2[C@H](O)c1ccnc2ccc(O)cc12 [apoquinine]
DENV2 replicon
  % Replicon Inhibition (Means ± SEM) DENV2: — (key: —: “-” refers to no inhibition)
WNV replicon; [11]
  % Replicon Inhibition (Means ± SEM) WNV: 33.7 ± 2.9%

## CC(CCCN(CCCl)CCCl)Nc1ccnc2cc(Cl)ccc12 (stereo not drawn) [chloroquine mustard]
DENV2 replicon
  % Replicon Inhibition (Means ± SEM) DENV2: 99.6 ± 0.32%
DENV2 replicon; Dengue virus
  inhibition at 50 µM: > 99%
DENV2 replicon; [12]
  EC50: 2.9 ± 0.78 µM
BHK-21 cells [3]
  CC50: 30.5 ± 9.77 µM
Vero cells [4]
  CC50: 3.64 ± 0.93 µM
WNV replicon
  % Replicon Inhibition (Means ± SEM) WNV: 99.8 ± 0.03%
WNV replicon; West Nile virus, Vero
  inhibition at 50 µM: > 99%
  EC50: 2.95 ± 0.77 µM

## CC(CCCN(CCCl)CCCl)Nc1ccnc2cc(Cl)ccc12.O=C(O)c1cc2ccccc2c(Cc2c(O)c(C(=O)O)cc3ccccc23)c1O [chloroquine mustard pamoate]
DENV2 replicon
  % Replicon Inhibition (Means ± SEM) DENV2: 47.5 ± 4.9%
WNV replicon
  % Replicon Inhibition (Means ± SEM) WNV: 10.35 ± 4.1%

## CCN(CC)Cc1cc(Nc2ccnc3cc(Cl)ccc23)ccc1O [AQ, 4-[(7-chloroquinolin-4-yl)amino]-2(diethylaminomethyl)phenol]
BHK-21 cells [1]
  CC50: 80 ± 6.27 µM
DENV2 [5]; AQ 5 μM added as late as 15 hours post-infection, supernatants at 72 hours, MOI of 1
  plaque reduction: ≥ 90%
DENV2 [5]; AQ 5 μM added at 21 hours post-infection and later
  inhibitory effect when added late: lost its inhibitory effect
DENV2 [5]; AQ 5 μM added up to 12 hours post-infection, supernatants at 48 hours
  inhibition of DENV2 infection when added early: inhibited DENV2 infection steadily
DENV2 [6]; AQ 5 μM only during adsorption, MOI of 0.01
  plaque titer versus DMSO control, direct plaque assay: not significantly different
DENV2 [6]; AQ 10 μM during adsorption
  virus titer reduced, direct plaque assay: 69.23±1.57%
DENV2 [6]; AQ 25 μM during adsorption
  virus titer reduced, direct plaque assay: 82.70±2.48%
DENV2 replicon
  % Replicon Inhibition (Means ± SEM) DENV2: 76.3 ± 1.6%
DENV2 replicon; Dengue virus
  inhibition at 50 µM: 76.3 ± 1.6%
DENV2 replicon; [12]
  EC50: 10.8 ± 1.43 µM
DENV2 replicon; Dengue virus, DENV2, BHK-21, read-out: EC50 in BHK-21/DENV2 replicon cells
  EC50: 7.41 ± 1.09 µM
DENV2 [7]; AQ 5 μM, 72 hours, BHK-21 cells
  virus infectivity (PFU/mL of supernatant) by plaque assay: significant reduction
DENV2 [7]; Dengue virus, DENV2, BHK-21, 96 h
  EC90: 2.71 ± 0.85 µM
DENV2 [7]; Dengue virus, DENV2, MOI of 1, supernatants at 72 hours, BHK-21 cells, read-out: EC50 for inhibition of extracellular release of DENV2 (plaque assay)
  EC50: 1.08 ± 0.09 µM
DENV2 [7]; Dengue virus, DENV2, MOI of 1, supernatants at 72 hours, BHK-21 cells
  EC90: 2.69 ± 0.4 µM
Rluc enzyme
  interference with Rluc enzyme activity: did not interfere
DENV2 [8]
  reduction of plaque titer from DMSO control: ≥ 90%
Vero cells [2]
  CC50: 24.4 ± 2.49 µM
DENV2 [9]
  DENV2 replication, intracellular and extracellular RNA levels (qRT-PCR): effectively inhibited DENV2 replication
WNV replicon; West Nile virus, Vero
  inhibition at 50 µM: 96.3 ± 0.39%
  EC50: 14.6 ± 2.21 µM
DENV2 [10]; AQ 5 μM present during and up to 96 hours post-infection
  inhibition of DENV2 infectivity, indirect plaque assay: significant inhibition
DENV2 [10]; AQ 5 μM, MOI of 0.01, added during adsorption and post-infection
  plaque formation reduced: ≥ 90%
DENV2 [10]; AQ 1, 5, 10, 25 μM, MOI of 0.01, p<0.05
  virus titers (PFU/mL) over time course: reduced significantly in a dose-dependent manner

## CCN(CC)Cc1cc(Nc2c(C)cnc3cc(Cl)ccc23)ccc1O [AQ derivative 1]
DENV2 replicon
  % Replicon Inhibition (Means ± SEM) DENV2: 89.9 ± 10.6%
  inhibition of DENV2 replicon replication (in words): strong inhibition
DENV2 replicon; read-out: DENV replicon EC50
  EC50: 21.1 ± 1.22 µM
WNV replicon; [11]
  % Replicon Inhibition (Means ± SEM) WNV: 97.9 ± 0.5%
WNV replicon; Table 2, unit inferred
  EC50: 14.8 ± 0.48 µM
WNV replicon; Vero/WNV replicon cells
  inhibition of WNV replicon replication (in words): strong inhibition

## COc1cc(NC(C)CCCN)c2ncccc2c1 (stereo not drawn) [primaquine]
DENV2 replicon; Dengue virus
  inhibition at 50 µM: < 0%
WNV replicon; West Nile virus, Vero
  inhibition at 50 µM: < 0%
